pEC50: −log10 of the molar value.

Test [1] can be described thus: antirhinoviral activity against HRV Protease 3CP (serotype 1A).
Test [2] can be described thus: antirhinoviral activity against HRV Protease 3CP (serotype 10).
The nature of test [3]: antirhinoviral activity against HRV Protease 3CP (serotype 14).
Test [4] is described as follows: antirhinoviral activity against HRV Protease 3CP (serotype 39).
Test [5] can be described thus: antirhinoviral activity against HRV Protease 3CP (serotype 11).
Test [6] in a line: antirhinoviral activity against HRV Protease 3CP (serotype 3).
The nature of test [7]: antirhinoviral activity against HRV Protease 3CP (serotype 9).
A short description of test [8]: antirhinoviral activity against HRV Protease 3CP (serotype 19).
Test [9] can be described thus: antirhinoviral activity against HRV Protease 3CP (serotype 16).
Test [10] can be described thus: antirhinoviral activity against HRV Protease 3CP (serotype 23).
The nature of test [11]: antirhinoviral activity against HRV Protease 3CP (serotype 78).
The nature of test [12]: antirhinoviral activity against HRV Protease 3CP (serotype 10). This is another data set of the same source.
Test [13] can be described thus: antirhinoviral activity against HRV Protease 3CP (serotype 2).
Test [14] can be described thus: antirhinoviral activity against HRV Protease 3CP (serotype Hanks).
Test [15] in a line: antirhinoviral activity against HRV Protease 3CP (serotype 1A). The source holds these as a separate data set.
The nature of test [16]: antirhinoviral activity against HRV Protease 3CP (serotype 13).
The nature of test [17]: antirhinoviral activity against HRV Protease 3CP (serotype 25).
Test [18] is described as follows: antirhinoviral activity against Human Rhinovirus Protease 3C (serotype 14).
The nature of test [19]: antirhinoviral activity against Human Rhinovirus Protease 3C (serotype 1A).
The nature of test [20]: antirhinoviral activity against Human Rhinovirus Protease 3C (serotype 10).

Consider `CCOC(=O)/C=C/[C@H](C[C@@H]1CCNC1=O)NC(=O)[C@H](Cc1ccc(F)cc1)n1cccc(NC(=O)c2cc(C)on2)c1=O` [4-(3-(4-Fluoro-phenyl)-2-{3-[(5-methyl-isoxazole-3-carbonyl)-amino]-2-oxo-2H-pyridin-1-yl}-propionylamino)-5-(2-oxo-pyrrolidin-3-yl)-pent-2-enoic acid ethyl ester], for which the negative logarithm of the EC50 (pEC50) was 7.82 in test [1] and 8.40 in [2].
Taken in the same sequence, the figures for `CCOC(=O)/C=C/[C@H](CCC(N)=O)NC(=O)[C@H](Cc1ccc(F)c(F)c1)n1cccc(NC(=O)OCc2ccccc2)c1=O` [4-[2-(3-Benzyloxycarbonylamino-2-oxo-2H-pyridin-1-yl)-3-(3,4-difluoro-phenyl)-propionylamino]-6-carbamoyl-hex-2-enoic acid ethyl ester] were 6.29 and 7.49.
Taken in the same sequence, the figures for `CCOC(=O)/C=C/[C@H](CCC(N)=O)NC(=O)[C@H](Cc1ccc(F)cc1)n1cccc(NC(=O)OCc2ccccc2)c1=O` [4-[2-(3-Benzyloxycarbonylamino-2-oxo-2H-pyridin-1-yl)-3-(4-fluoro-phenyl)-propionylamino]-6-carbamoyl-hex-2-enoic acid ethyl ester] were 6.22 and 6.95.
`CCOC(=O)/C=C/[C@H](C[C@@H]1CCNC1=O)NC(=O)[C@H](Cc1ccccc1)n1cccc(NC(=O)OCc2ccccc2)c1=O` [4-[2-(3-Benzyloxycarbonylamino-2-oxo-2H-pyridin-1-yl)-3-phenyl-propionylamino]-5-(2-oxo-pyrrolidin-3-yl)-pent-2-enoic acid ethyl ester] showed a pEC50 in [3] of 8.52.
Regarding `Cc1cc(C(=O)Nc2cccn([C@@H](Cc3ccc(F)c(F)c3)C(=O)N[C@H](/C=C/C(=O)OC(C)C)C[C@@H]3CCNC3=O)c2=O)no1` [(1S,5S)-4-((S)-3-(3,4-Difluoro-phenyl)-2-{3-[(5-methyl-isoxazole-3-carbonyl)-amino]-2-oxo-2H-pyridin-1-yl}-propionylamino)-5-(2-oxo-pyrrolidin-3-yl)-pent-2-enoic acid isopropyl ester], the pEC50 is 7.36 in test [4]; 8.52 in test [5]; 8.52 in test [3]; 7.48 in test [6]; 6.96 in test [7]; 8.05 in [8]. The pEC50 was 7.44 in test [9]; 8.00 in [10]; 7.92 in [11]; 7.07 in test [12]; 7.32 in [13]; 8.52 in test [14]. Further, the pEC50 in [15] is 6.88; in test [16] it was 7.36; in [17] it was 7.00.
Take `CCOC(=O)/C=C/[C@H](C[C@@H]1CCNC1=O)NC(=O)[C@H](Cc1ccc(F)c(F)c1)n1cccc(NC(=O)c2cc(C)on2)c1=O` [(1S,5S)-4-((S)-3-(3,4-Difluoro-phenyl)-2-{3-[(5-methyl-isoxazole-3-carbonyl)-amino]-2-oxo-2H-pyridin-1-yl}-propionylamino)-5-(2-oxo-pyrrolidin-3-yl)-pent-2-enoic acid ethyl ester]: the negative-log EC50 (pEC50) in test [1] is 8.22; in [2], 8.30.
In the same order, the values of `CCOC(=O)/C=C/[C@H](CCC(N)=O)NC(=O)[C@H](Cc1ccccc1)n1cccc(NC(=O)C2SCCS2)c1=O` [6-Carbamoyl-4-(2-{3-[([1,3]dithiolane-2-carbonyl)-amino]-2-oxo-2H-pyridin-1-yl}-3-phenyl-propionylamino)-hex-2-enoic acid ethyl ester] are 5.93 and 5.85.
Consider `CCOC(=O)/C=C/[C@H](CCC(N)=O)NC(=O)[C@H](Cc1ccccc1)n1cccc(NC(=O)OCc2ccccc2)c1=O` [(E)-(S)-4-[(S)-2-(3-Benzyloxycarbonylamino-2-oxo-2H-pyridin-1-yl)-3-phenyl-propionylamino]-6-carbamoyl-hex-2-enoic acid ethyl ester], for which the negative logarithm of the EC50 (pEC50) is 7.48 in [18], 5.90 in test [19] and 6.43 in [20].

Broadly, the pEC50 is −log10 of the EC50, conventionally taken in molar units.

The values are drawn from BindingDB's records for doi:10.1021/jm010469k (Agouron Pharmaceuticals, 2002).
